Measured values from paper PMC5399005, “Degradation of lignin β‐aryl ether units in Arabidopsis thaliana expressing LigD, LigF and LigG from Sphingomonas paucimobilis SYK‐6” (Plant Biotechnology Journal, 2016).

Experiments:
Assay type in all cases: biochemical
LigD = biological target: T1, LigD (Sphingobium sp. SYK-6, UniProt Q01198); test: LC-MS product detection with leaf extract of transgenic Arabidopsis; details: 0.5 mM GGE, 1 mM NAD+, 1 mM GSH, 100 mM phosphate pH 7.5, room temperature, 16 h; product MPHPV
T1 sequence (Q01198 1-305): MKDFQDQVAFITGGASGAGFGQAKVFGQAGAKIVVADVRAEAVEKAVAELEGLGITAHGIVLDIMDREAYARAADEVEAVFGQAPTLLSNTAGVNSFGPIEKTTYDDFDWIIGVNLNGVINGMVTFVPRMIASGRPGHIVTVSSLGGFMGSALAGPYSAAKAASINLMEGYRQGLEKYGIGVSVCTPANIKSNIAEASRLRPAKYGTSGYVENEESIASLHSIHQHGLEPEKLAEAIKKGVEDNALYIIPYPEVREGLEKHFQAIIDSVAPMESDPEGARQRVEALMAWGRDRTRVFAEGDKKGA

LigG = biological target: T2, LigG (Sphingomonas paucimobilis, UniProt Q9WXJ9); test: as above; details: GS-HPV from LigF reaction mixture, GSH, 100 mM phosphate pH 7.5
T2 construct: codon-optimised, barley alpha-amylase signal peptide added, expressed in Arabidopsis (crude leaf extract)
T2 sequence (Q9WXJ9 1-265): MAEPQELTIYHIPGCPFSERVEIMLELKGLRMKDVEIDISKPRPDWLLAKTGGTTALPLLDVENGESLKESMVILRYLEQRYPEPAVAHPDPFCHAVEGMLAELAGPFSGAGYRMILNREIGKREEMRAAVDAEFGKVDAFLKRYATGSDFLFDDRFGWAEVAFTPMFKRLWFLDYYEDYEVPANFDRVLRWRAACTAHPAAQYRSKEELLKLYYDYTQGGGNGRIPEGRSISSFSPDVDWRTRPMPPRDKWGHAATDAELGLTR

LigF = biological target: T3, LigF (Sphingobium sp. SYK-6, UniProt P30347); test: LC-MS product detection with leaf extract of transgenic Arabidopsis (also E. coli extract); details: 0.5 mM MPHPV, 1 mM GSH, 1 mM NAD+, 100 mM phosphate pH 7.5, room temperature, 16 h; product GS-HPV
T3 construct: also pETSTREP in E. coli BL21(DE3)
T3 sequence (P30347 1-257): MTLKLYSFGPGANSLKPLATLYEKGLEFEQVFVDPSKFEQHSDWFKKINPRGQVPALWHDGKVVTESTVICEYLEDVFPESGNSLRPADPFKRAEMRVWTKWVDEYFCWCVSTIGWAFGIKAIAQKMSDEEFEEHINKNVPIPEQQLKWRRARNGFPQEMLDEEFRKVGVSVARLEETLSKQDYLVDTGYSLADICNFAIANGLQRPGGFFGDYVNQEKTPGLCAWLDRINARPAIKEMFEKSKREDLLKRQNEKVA

COc1cc(C(O)C(CO)Oc2ccccc2OC)ccc1O (stereo not drawn) [GGE]
LC-MS product detection with leaf extract of transgenic Arabidopsis (LigD): GGE, MPHPV and GS‐HPV were used as a substrate to monitor the catalytic function

COc1cc(C(=O)C(CO)SC[C@H](NC(=O)CC[C@H](N)C(=O)O)C(=O)NCC(=O)O)ccc1O (stereo partly drawn) [GS-HPV]
LC-MS product detection with leaf extract of transgenic Arabidopsis (LigG): The reaction mixture obtained contained mainly GS‐HPV and was used to test for LigG activity

COc1cc(C(=O)C(CO)Oc2ccccc2OC)ccc1O (stereo not drawn) [S4, MPHPV]
LC-MS product detection with leaf extract of transgenic Arabidopsis (also E. col) (LigF): produced enzymatically by incubation of MPHPV with protein extracts of Escherichia coli expressing LigF
